Source: the NIST ThermoML archive (doi:10.1016/j.tca.2012.01.013)
± gives the expanded uncertainty stated by the source.

Assay: xn = mol fraction of the nth substance listed
Conditions: 101 kPa, Liquid, Vibrating tube method

COC(=O)c1ccccc1C(=O)OC [dimethyl 1,2-benzenedicarboxylate] + CCCCO
mass density (288.15 K, x1 = 0.0997): 877.193 ± 0.17 kg/m3
mass density (288.15 K, x1 = 0.1998): 932.375 ± 0.16 kg/m3
mass density (288.15 K, x1 = 0.2994): 980.153 ± 0.15 kg/m3
mass density (288.15 K, x1 = 0.3999): 1022.54 ± 0.17 kg/m3
mass density (288.15 K, x1 = 0.5): 1059.92 ± 0.2 kg/m3
mass density (288.15 K, x1 = 0.5985): 1092.78 ± 0.23 kg/m3
mass density (288.15 K, x1 = 0.7001): 1123.06 ± 0.27 kg/m3
mass density (288.15 K, x1 = 0.8016): 1150.29 ± 0.31 kg/m3
mass density (288.15 K, x1 = 0.9002): 1174.24 ± 0.35 kg/m3
mass density (288.15 K, x1 = 1): 1196.26 ± 0.39 kg/m3
mass density (293.15 K, x1 = 0.0997): 873.146 ± 0.18 kg/m3
mass density (293.15 K, x1 = 0.1998): 928.143 ± 0.17 kg/m3
mass density (293.15 K, x1 = 0.2994): 975.792 ± 0.16 kg/m3
mass density (293.15 K, x1 = 0.3999): 1018.08 ± 0.17 kg/m3
mass density (293.15 K, x1 = 0.5): 1055.37 ± 0.2 kg/m3
mass density (293.15 K, x1 = 0.5985): 1088.17 ± 0.23 kg/m3
mass density (293.15 K, x1 = 0.7001): 1118.42 ± 0.27 kg/m3
mass density (293.15 K, x1 = 0.8016): 1145.63 ± 0.31 kg/m3
mass density (293.15 K, x1 = 0.9002): 1169.57 ± 0.35 kg/m3
mass density (293.15 K, x1 = 1): 1191.59 ± 0.39 kg/m3
mass density (298.15 K, x1 = 0.0997): 869.077 ± 0.18 kg/m3
mass density (298.15 K, x1 = 0.1998): 923.892 ± 0.17 kg/m3
mass density (298.15 K, x1 = 0.2994): 971.414 ± 0.16 kg/m3
mass density (298.15 K, x1 = 0.3999): 1013.6 ± 0.17 kg/m3
mass density (298.15 K, x1 = 0.5): 1050.83 ± 0.2 kg/m3
mass density (298.15 K, x1 = 0.5985): 1083.57 ± 0.23 kg/m3
mass density (298.15 K, x1 = 0.7001): 1113.78 ± 0.26 kg/m3
mass density (298.15 K, x1 = 0.8016): 1140.96 ± 0.3 kg/m3
mass density (298.15 K, x1 = 0.9002): 1164.91 ± 0.34 kg/m3
mass density (298.15 K, x1 = 1): 1186.93 ± 0.39 kg/m3
mass density (303.15 K, x1 = 0.0997): 864.981 ± 0.18 kg/m3
mass density (303.15 K, x1 = 0.1998): 919.619 ± 0.17 kg/m3
mass density (303.15 K, x1 = 0.2994): 967.016 ± 0.16 kg/m3
mass density (303.15 K, x1 = 0.3999): 1009.11 ± 0.16 kg/m3
mass density (303.15 K, x1 = 0.5): 1046.26 ± 0.19 kg/m3
mass density (303.15 K, x1 = 0.5985): 1078.96 ± 0.22 kg/m3
mass density (303.15 K, x1 = 0.7001): 1109.14 ± 0.26 kg/m3
mass density (303.15 K, x1 = 0.8016): 1136.31 ± 0.3 kg/m3
mass density (303.15 K, x1 = 0.9002): 1160.25 ± 0.34 kg/m3
mass density (303.15 K, x1 = 1): 1182.28 ± 0.38 kg/m3
mass density (308.15 K, x1 = 0.0997): 860.864 ± 0.18 kg/m3
mass density (308.15 K, x1 = 0.1998): 915.319 ± 0.17 kg/m3
mass density (308.15 K, x1 = 0.2994): 962.593 ± 0.16 kg/m3
mass density (308.15 K, x1 = 0.3999): 1004.6 ± 0.16 kg/m3
mass density (308.15 K, x1 = 0.5): 1041.69 ± 0.19 kg/m3
mass density (308.15 K, x1 = 0.5985): 1074.34 ± 0.22 kg/m3
mass density (308.15 K, x1 = 0.7001): 1104.49 ± 0.26 kg/m3
mass density (308.15 K, x1 = 0.8016): 1131.65 ± 0.3 kg/m3
mass density (308.15 K, x1 = 0.9002): 1155.59 ± 0.34 kg/m3
mass density (308.15 K, x1 = 1): 1177.62 ± 0.38 kg/m3
mass density (313.15 K, x1 = 0.0997): 856.701 ± 0.18 kg/m3
mass density (313.15 K, x1 = 0.1998): 910.989 ± 0.16 kg/m3
mass density (313.15 K, x1 = 0.2994): 958.146 ± 0.15 kg/m3
mass density (313.15 K, x1 = 0.3999): 1000.06 ± 0.15 kg/m3
mass density (313.15 K, x1 = 0.5): 1037.11 ± 0.18 kg/m3
mass density (313.15 K, x1 = 0.5985): 1069.7 ± 0.21 kg/m3
mass density (313.15 K, x1 = 0.7001): 1099.84 ± 0.25 kg/m3
mass density (313.15 K, x1 = 0.8016): 1126.98 ± 0.29 kg/m3
mass density (313.15 K, x1 = 0.9002): 1150.93 ± 0.33 kg/m3
mass density (313.15 K, x1 = 1): 1172.97 ± 0.37 kg/m3
mass density (318.15 K, x1 = 0.0997): 852.519 ± 0.18 kg/m3
mass density (318.15 K, x1 = 0.1998): 906.628 ± 0.17 kg/m3
mass density (318.15 K, x1 = 0.2994): 953.674 ± 0.16 kg/m3
mass density (318.15 K, x1 = 0.3999): 995.51 ± 0.15 kg/m3
mass density (318.15 K, x1 = 0.5): 1032.5 ± 0.18 kg/m3
mass density (318.15 K, x1 = 0.5985): 1065.06 ± 0.21 kg/m3
mass density (318.15 K, x1 = 0.7001): 1095.18 ± 0.25 kg/m3
mass density (318.15 K, x1 = 0.8016): 1122.32 ± 0.29 kg/m3
mass density (318.15 K, x1 = 0.9002): 1146.27 ± 0.33 kg/m3
mass density (318.15 K, x1 = 1): 1168.32 ± 0.37 kg/m3
mass density (323.15 K, x1 = 0.0997): 848.279 ± 0.2 kg/m3
mass density (323.15 K, x1 = 0.1998): 902.232 ± 0.18 kg/m3
mass density (323.15 K, x1 = 0.2994): 949.172 ± 0.17 kg/m3
mass density (323.15 K, x1 = 0.3999): 990.935 ± 0.17 kg/m3
mass density (323.15 K, x1 = 0.5): 1027.87 ± 0.19 kg/m3
mass density (323.15 K, x1 = 0.5985): 1060.4 ± 0.22 kg/m3
mass density (323.15 K, x1 = 0.7001): 1090.51 ± 0.25 kg/m3
mass density (323.15 K, x1 = 0.8016): 1117.65 ± 0.29 kg/m3
mass density (323.15 K, x1 = 0.9002): 1141.61 ± 0.33 kg/m3
mass density (323.15 K, x1 = 1): 1163.67 ± 0.37 kg/m3
